Data: patent US20250051327A1, “MALT-1 MODULATORS” (EXSCIENTIA AI LIMITED, priority 2020, published 2025)

Experiments:
[1] = biological target: Recombinant human MALT-1 (amino acids 340-824) (Homo sapiens (Human), UniProt Q9UDY8); experiment: MALT-1 inhibition assay (fluorogenic substrate Ac-LRSR-Rh110-DP); type: biochemical; settings: recombinant human MALT-1, substrate Ac-LRSR-Rh110-DP
Summary of the method: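 MALT-1 at 3 nM final was reacted with 10 μM Ac-LRSR-Rh110-DP, with substrate addition starting the reaction. Incubation ran 60 minutes at 25° C in the dark. Percent inhibition from fluorescence across doses was fitted to a 4-parameter logistic to give IC50.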

[2] = system: IL-2 secretion by human effector memory T cells (TEM); experiment: Effector memory T cells IL-2 release assay; type: cell-based; settings: T-cell; human CD4+ effector memory T cells, CD3/CD28 bead stimulation, 24 h; read-out: CD4TC IL2 IC50
Summary of the method: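 Human CD4+ effector memory T cells from healthy-donor buffy coats were stimulated with anti-CD3/CD28 Dynabeads and exposed to 10 semi-log compound doses (0.1% DMSO) for 24 h at 37 °C. Supernatant IL-2 was measured by HTRF, and IC50 came from a 4-parameter logistic fit to maximal IL-2. Viability was checked by flow cytometry.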

Chain of Recombinant human MALT-1 (amino acids 340-824) (Q9UDY8 340-824): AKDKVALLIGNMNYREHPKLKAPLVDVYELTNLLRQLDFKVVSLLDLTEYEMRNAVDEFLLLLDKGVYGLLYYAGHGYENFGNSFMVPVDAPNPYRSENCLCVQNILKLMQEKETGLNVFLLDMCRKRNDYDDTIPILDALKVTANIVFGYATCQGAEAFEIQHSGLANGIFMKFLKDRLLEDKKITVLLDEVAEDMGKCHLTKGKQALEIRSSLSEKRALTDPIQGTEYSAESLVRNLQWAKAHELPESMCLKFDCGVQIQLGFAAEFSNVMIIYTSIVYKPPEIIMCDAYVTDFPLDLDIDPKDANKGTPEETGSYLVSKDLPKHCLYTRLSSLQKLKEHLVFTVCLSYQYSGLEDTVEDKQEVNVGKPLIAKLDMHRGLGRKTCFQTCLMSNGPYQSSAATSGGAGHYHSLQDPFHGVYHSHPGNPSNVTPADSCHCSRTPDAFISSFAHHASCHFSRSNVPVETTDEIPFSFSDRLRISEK

| SMILES | IC50 [1] [nM] | IC50 [2] [nM] |
| --- | --- | --- |
| CN(C(=O)C1CCN(C(=O)CO)CC1)[C@@H](c1ccc(N2CCCc3c2cnc2cc(Cl)nn32)cc1)C(F)(F)F [CPD0073091, N-[(1S)-1-(4-{4-chloro-2,3,7,10-tetraazatricyclo[7.4.0.0^2,6]trideca-1(9),3,5,7-tetraen-10-yl}phenyl)-2,2,2-trifluoroethyl]-1-(2-hydroxyacetyl)-N-methylpiperidine-4-carboxamide] | 59 | 101 |
| CN(C(=O)CN1CCS(=O)(=O)CC1)[C@@H](c1ccc(N2CCCc3c2cnc2cc(Cl)nn32)cc1)C(F)(F)F [CPD0073572, N-[(1S)-1-(4-{4-chloro-2,3,7,10-tetraazatricyclo[7.4.0.0^2,6]trideca-1(9),3,5,7-tetraen-10-yl}phenyl)-2,2,2-trifluoroethyl]-2-(1,1-dioxo-1λ^6-thiomorpholin-4-yl)-N-methylacetamide] | 163 | 253 |
| CN(C(=O)[C@H]1CNC(=O)C1)[C@@H](c1ccc(N2CCCc3c2cnc2cc(Cl)nn32)cc1)C(F)(F)F (stereo in doubt) [CPD0073564, (3rel-R)—N-[(1S)-1-(4-{4-chloro-2,3,7,10-tetraazatricyclo[7.4.0.0^2,6]trideca-1(9),3,5,7-tetraen-10-v}phenyl)-2,2,2-trifluoroethyl]-N-methyl-5-oxopyrrolidine-3-carboxamide] | 53 | 250 |
| CC(=O)N1CCC(C(=O)N(C)[C@@H](c2ccc(N3CC[C@H](C)c4c3cnc3cc(Cl)nn43)cc2)C(F)(F)F)CC1 (relative stereo) [CPD0074566, 1-Acetyl-N-[(1S)-1-[4-[(13rel-R)-4-chloro-13-methyl-2,3,7,10-tetrazatricyclo[7.4.0.0^2,6]trideca-1(9),3,5,7-tetraen-10-yl]phenyl]-2,2,2-trifluoro-ethyl]-N-methyl-piperidine-4-carboxamide] | 54 | 58 |
| CN(C(=O)[C@@H]1CCS(=O)(=O)C1)[C@@H](c1ccc(N2CCCc3c2cnc2cc(Cl)nn32)cc1)C(F)(F)F (relative stereo) [CPD0022135, (3rel-S)-N-[(1S)-1-(4-{4-chloro-2,3,7,10-tetraazatricyclo[7.4.0.0^2,6]trideca-1(9),3,5,7-tetraen-10-yl}phenyl)-2,2,2-trifluoroethyl]-N-methyl-1,1-dioxo-1λ^6-thiolane-3-carboxamide] | 84 | 95 |
| CC(=O)N1CC[C@@H](C(=O)N(C)[C@@H](c2ccc(N3CCCc4c3cnc3cc(Cl)nn43)cc2)C(F)(F)F)C1 (relative stereo) [CPD0073188, (3rel-R)-1-acetyl-N-[(1S)-1-(4-{4-chloro-2,3,7,10-tetraazatricyclo[7.4.0.0^2,6]trideca-1(9),3,5,7-tetraen-10-yl}phenyl)-2,2,2-trifluoroethyl]-N-methylpyrrolidine-3-carboxamide] | 113 | 235 |
| COC[C@@]1(C)CCN(c2ccc([C@H](N(C)C(=O)[C@H]3CC[S@+]([O-])CC3)C(F)(F)F)cc2)c2cnc3cc(Cl)nn3c21 (relative stereo) [CPD0073138, (1rel-r,4 rel-r)-N-[(1S)-1-[4-[(13 rel-S)-4-chloro-13-(methoxymethyl)-13-methyl-2,3,7,10-tetrazatricyclo[7.4.0.0^2,6]trideca-1(9),3,5,7-tetraen-10-yl]phenyl]-2,2,2-trifluoro-ethyl]-N-methyl-1-oxo-1λ^4-thiane-4-carboxamide] | 79 | 55 |
| CN(C(=O)C1CCOCC1)[C@@H](c1ccc(N2CCCc3c2cnc2cc(Cl)nn32)cc1)C(F)(F)F [CPD0021574, N-[(1S)-1-(4-{4-chloro-2,3,7,10-tetraazatricyclo[7.4.0.0^2,6]trideca-1(9),3,5,7-tetraen-10-yl}phenyl)-2,2,2-trifluoroethyl]-N-methyloxane-4-carboxamide] | 123 | 121 |
| CN(C(=O)[C@H]1C[C@H]([S@+](C)(=N)[O-])C1)[C@@H](c1ccc(N2CCCc3c2cnc2cc(Cl)nn32)cc1)C(F)(F)F [CPD0073226, (1R,3s)-N-[(1S)-1-(4-{4-chloro-2,3,7,10-tetraazatricyclo[7.4.0.0^2,6]trideca-1(9),3,5,7-tetraen-10-yl}phenyl)-2,2,2-trifluoroethyl]-3-[(S)-imino(methyl)oxo-λ^6-sulfanyl]-N-methylcyclobutane-1-carboxamide] | 60 | 105 |
| CN(C(=O)[C@@H](O)C1CCS(=O)(=O)CC1)[C@@H](c1ccc(N2CCCc3c2cnc2cc(Cl)nn32)cc1)C(F)(F)F (relative stereo) [CPD0073973, (2rel-S)—N-[(1S)-1-(4-{4-chloro-2,3,7,10-tetraazatricyclo[7.4.0.0^2,6]trideca-1(9),3,5,7-tetraen-10-yl}phenyl)-2,2,2-trifluoroethyl]-2-(1,1-dioxo-1λ^e-thian-4-yl)-2-hydroxy-N-methylacetamide] | 57 | 149 |
| CN(C(=O)CC1CCCS1(=O)=O)[C@@H](c1ccc(N2CCCc3c2cnc2cc(Cl)nn32)cc1)C(F)(F)F (stereo partly drawn) [CPD0021934, N-[(1S)-1-(4-{4-chloro-2,3,7,10-tetraazatricyclo[7.4.0.0^2,6]trideca-1(9),3,5,7-tetraen-10-yl}phenyl)-2,2,2-trifluoroethyl]-2-(1,1-dioxo-1λ^6-thiolan-2-yl)-N-methylacetamide] | 369 | 588 |
| CN(C(=O)[C@@H]1CNC(=O)C1)[C@@H](c1ccc(N2CCCc3c2cnc2cc(Cl)nn32)cc1)C(F)(F)F (stereo in doubt) [CPD0073565, (3rel-S)—N-[(1S)-1-(4-{4-chloro-2,3,7,10-tetraazatricyclo[7.4.0.0^2,6]trideca-1(9),3,5,7-tetraen-10-yl}phenyl)-2,2,2-trifluoroethyl]-N-methyl-5-oxopyrrolidine-3-carboxamide] | 43 | 101 |
| CN(C(=O)[C@H]1CC[S@](=N)(=O)CC1)[C@@H](c1ccc(N2CCC(C)(C)c3c2cnc2cc(F)nn32)cc1)C(F)(F)F (relative stereo) [CPD0072783, (1rel-r,4rel-r)-1-imino-N-methyl-1-oxo-N-[(1S)-2,2,2-trifluoro-1-(4-{4′-fluoro-2′,3′,7′,10′-tetraazaspiro[cyclopropane-1,13′-tricyclo[7.4.0.0^2,6]tridecane]-1′(9′),3′,5′,7′-tetraen-10′-yl}phenyl)ethyl]-1λ^6-thiane-4-carboxamide] | 63 | 114 |
| CN(C(=O)C1CCS(=O)(=O)CC1)[C@@H](c1ccc(N2CCC(C)(C)c3c2cnc2cc(Cl)nn32)cc1)C(F)(F)F [CPD0019589, N-[(1S)-1-(4-{4-chloro-13,13-dimethyl-2,3,7,10-tetraazatricyclo[7.4.0.0^2,6]trideca-1(9),3,5,7-tetraen-10-yl}phenyl)-2,2,2-trifluoroethyl]-N-methyl-1,1-dioxo-1λ^6-thiane-4-carboxamide] | 38 | 32 |
| COc1ccc2ncc(Nc3ccc([C@H](N(C)C(=O)[C@H]4CC[S@](=N)(=O)CC4)C(F)(F)F)cc3)c([C@@H](C)OC)c2n1 [CPD0075563] | 102 | 257 |
